The supplement of paper PMC10307832

Legend:
Test in all cases: relative viability (nuclei count vs DMSO), 5 days (fraction); higher = more cells survive
COR-L23 = tested on: COR-L23
How it was run: (§1)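 Medians of duplicate plates are given as relative viability. That measure is the nuclei count in treated wells divided by the count in vehicle wells. Counts were taken on 4× images of lung cancer cell lines in 1536-well plates, 5 days after pin-tool dosing the day after seeding with one drug alone or a fixed anchor-drug dose plus five library-drug doses (not always all listed) in √10 steps.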

ChaGo-K-1 = tested on: ChaGo-K-1
How it was run: as §1

EMC-BAC-2 = tested on: EMC-BAC-2
How it was run: as §1

EPLC-272H = tested on: EPLC-272H
How it was run: as §1

H3255 = tested on: H3255
How it was run: as §1

HCC-44 = tested on: HCC-44
How it was run: as §1

HCC-827 = tested on: HCC-827
How it was run: as §1

LCLC-103H = tested on: LCLC-103H
How it was run: as §1

LU99A = tested on: LU99A
How it was run: as §1

NCI-H1395 = tested on: NCI-H1395
How it was run: as §1

NCI-H1563 = tested on: NCI-H1563
How it was run: as §1

NCI-H1651 = tested on: NCI-H1651
How it was run: as §1

NCI-H1793 = tested on: NCI-H1793
How it was run: as §1

NCI-H1944 = tested on: NCI-H1944
How it was run: as §1

NCI-H2023 = tested on: NCI-H2023
How it was run: as §1

NCI-H2085 = tested on: NCI-H2085
How it was run: as §1

NCI-H2087 = tested on: NCI-H2087
How it was run: as §1

NCI-H2405 = tested on: NCI-H2405
How it was run: as §1

NCI-H520 = tested on: NCI-H520
How it was run: as §1

NCI-H650 = tested on: NCI-H650
How it was run: as §1

NCI-H838 = tested on: NCI-H838
How it was run: as §1

SK-MES-1 = tested on: SK-MES-1
How it was run: as §1

COc1nc(C)cnc1NS(=O)(=O)c1cccnc1-c1ccc(-c2nnco2)cc1 [Zibotentan] + CCNC(=O)c1noc(-c2cc(C(C)C)c(O)cc2O)c1-c1ccc(CN2CCOCC2)cc1 [Luminespib] (partner 0.01 µM)
relative viability (COR-L23; first compound 0.08 µM): 0.879
relative viability (COR-L23; first compound 0.253 µM): 0.656
relative viability (COR-L23; first compound 0.8 µM): 0.719
relative viability (COR-L23; first compound 2.53 µM): 0.667
relative viability (ChaGo-K-1; first compound 0.08 µM): 0.568
relative viability (ChaGo-K-1; first compound 0.253 µM): 0.683
relative viability (ChaGo-K-1; first compound 0.8 µM): 0.588
relative viability (ChaGo-K-1; first compound 2.53 µM): 0.503
relative viability (EMC-BAC-2; first compound 0.08 µM): 1.3
relative viability (EMC-BAC-2; first compound 0.8 µM): 1.13
relative viability (EMC-BAC-2; first compound 2.53 µM): 1.22
relative viability (EPLC-272H; first compound 0.08 µM): 0.234
relative viability (EPLC-272H; first compound 0.253 µM): 0.376
relative viability (EPLC-272H; first compound 0.8 µM): 0.272
relative viability (EPLC-272H; first compound 2.53 µM): 0.254
relative viability (H3255; first compound 0.08 µM): 0.996
relative viability (H3255; first compound 0.253 µM): 0.839
relative viability (H3255; first compound 0.8 µM): 0.899
relative viability (H3255; first compound 2.53 µM): 0.799
relative viability (HCC-44; first compound 0.08 µM): 1.63
relative viability (HCC-44; first compound 0.8 µM): 1.07
relative viability (HCC-44; first compound 2.53 µM): 1.08
relative viability (HCC-827; first compound 0.08 µM): 0.574
relative viability (HCC-827; first compound 0.253 µM): 0.501
relative viability (HCC-827; first compound 0.8 µM): 0.442
relative viability (HCC-827; first compound 2.53 µM): 0.774
relative viability (LCLC-103H; first compound 0.08 µM): 0.913
relative viability (LCLC-103H; first compound 0.253 µM): 0.682
relative viability (LCLC-103H; first compound 0.8 µM): 0.982
relative viability (LCLC-103H; first compound 2.53 µM): 0.927
relative viability (LU99A; first compound 0.08 µM): 0.275
relative viability (LU99A; first compound 0.253 µM): 0.242
relative viability (LU99A; first compound 0.8 µM): 0.245
relative viability (LU99A; first compound 2.53 µM): 0.243
relative viability (NCI-H1395; first compound 0.08 µM): 0.725
relative viability (NCI-H1395; first compound 0.253 µM): 0.724
relative viability (NCI-H1395; first compound 0.8 µM): 0.649
relative viability (NCI-H1395; first compound 2.53 µM): 0.754
relative viability (NCI-H1563; first compound 0.08 µM): 0.474
relative viability (NCI-H1563; first compound 0.253 µM): 0.499
relative viability (NCI-H1563; first compound 0.8 µM): 0.552
relative viability (NCI-H1563; first compound 2.53 µM): 0.559
relative viability (NCI-H1651; first compound 0.08 µM): 0.802
relative viability (NCI-H1651; first compound 0.253 µM): 0.484
relative viability (NCI-H1651; first compound 0.8 µM): 0.958
relative viability (NCI-H1651; first compound 2.53 µM): 0.796
relative viability (NCI-H1793; first compound 0.08 µM): 0.172
relative viability (NCI-H1793; first compound 0.253 µM): 0.169
relative viability (NCI-H1793; first compound 0.8 µM): 0.225
relative viability (NCI-H1793; first compound 2.53 µM): 0.169
relative viability (NCI-H1944; first compound 0.08 µM): 0.732
relative viability (NCI-H1944; first compound 0.253 µM): 0.694
relative viability (NCI-H1944; first compound 0.8 µM): 0.75
relative viability (NCI-H1944; first compound 2.53 µM): 0.742
relative viability (NCI-H2023; first compound 0.08 µM): 0.856
relative viability (NCI-H2023; first compound 0.253 µM): 0.455
relative viability (NCI-H2023; first compound 0.8 µM): 0.645
relative viability (NCI-H2023; first compound 2.53 µM): 0.799
relative viability (NCI-H2085; first compound 0.08 µM): 0.386
relative viability (NCI-H2085; first compound 0.253 µM): 0.423
relative viability (NCI-H2085; first compound 0.8 µM): 0.42
relative viability (NCI-H2085; first compound 2.53 µM): 0.463
relative viability (NCI-H2087; first compound 0.08 µM): 0.168
relative viability (NCI-H2087; first compound 0.253 µM): 0.171
relative viability (NCI-H2087; first compound 0.8 µM): 0.169
relative viability (NCI-H2087; first compound 2.53 µM): 0.124
relative viability (NCI-H2405; first compound 0.08 µM): 0.703
relative viability (NCI-H2405; first compound 0.253 µM): 0.541
relative viability (NCI-H2405; first compound 0.8 µM): 0.774
relative viability (NCI-H2405; first compound 2.53 µM): 0.8
relative viability (NCI-H520; first compound 0.08 µM): 0.206
relative viability (NCI-H520; first compound 0.253 µM): 0.213
relative viability (NCI-H520; first compound 0.8 µM): 0.242
relative viability (NCI-H520; first compound 2.53 µM): 0.164
relative viability (NCI-H650; first compound 0.08 µM): 0.869
relative viability (NCI-H650; first compound 0.253 µM): 0.667
relative viability (NCI-H650; first compound 0.8 µM): 0.865
relative viability (NCI-H650; first compound 2.53 µM): 0.856
relative viability (NCI-H838; first compound 0.08 µM): 0.21
relative viability (NCI-H838; first compound 0.253 µM): 0.212
relative viability (NCI-H838; first compound 0.8 µM): 0.314
relative viability (NCI-H838; first compound 2.53 µM): 0.313
relative viability (SK-MES-1; first compound 0.08 µM): 1.05
relative viability (SK-MES-1; first compound 0.253 µM): 0.788
relative viability (SK-MES-1; first compound 0.8 µM): 0.818
relative viability (SK-MES-1; first compound 2.53 µM): 0.83
